Assay results as given in PubChem BioAssay AID328 (DTP/NCI, 2004).
“And” between values parts separate entries of the source, which are not always exact repeats. Equal entries are not always repeated. Inconclusive results and toxic doses are left out.

System: BDF1 mice, P388 leukemia ip, median survival T/C
Assay: NCI In Vivo Anticancer Drug Screen. Data for tumor model P388 Leukemia (intraperitoneal) in B6D2F1 (BDF1) mice
Details: endpoint: median survival time, higher = longer survival
Summary of the method: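 In tumour-bearing mice, survival after compound treatment is set against the vehicle group and given as a quotient.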

[1] = dose: 200.0 mg/kg/injection, schedule: Q01DX010 (ip), vehicle: saline

Q: For `CC(C)(C)OC(=O)C(C=O)N1C(=O)c2ccccc2C1=O` (stereo unspecified), which T/C (dose: 100.0 mg/kg/injection, schedule: Q01DX001 (ip), vehicle: saline with Tween-80) is on record?
A: 95 % of control

Q: What about the T/C (dose: 200.0 mg/kg/injection, schedule: Q01DX001 (ip), vehicle: saline with Tween-80) of the same compound?
A: 95 % of control

Q: And the T/C (dose: 400.0 mg/kg/injection, schedule: Q01DX001 (ip), vehicle: saline with Tween-80)?
A: 100 % of control

Q: How did the T/C (dose: 100.0 mg/kg/injection, schedule: Q01DX009 (ip), vehicle: saline) turn out when `O=C(Cn1cc(F)c(=O)[nH]c1=O)c1ccco1` was run?
A: 100 % of control

Q: And the T/C (dose: 100.0 mg/kg/injection, schedule: Q04DX003 (ip), vehicle: saline)?
A: 111 % of control

Q: What about the T/C (dose: 200.0 mg/kg/injection, schedule: Q01DX009 (ip), vehicle: saline) of the same compound?
A: 95 % of control

Q: And the T/C (dose: 200.0 mg/kg/injection, schedule: Q04DX003 (ip), vehicle: saline)?
A: 105 % of control and 122 % of control

Q: What about the T/C (dose: 400.0 mg/kg/injection, schedule: Q01DX009 (ip), vehicle: saline) of the same compound?
A: 100 % of control

Q: And the T/C (dose: 400.0 mg/kg/injection, schedule: Q04DX003 (ip), vehicle: saline)?
A: 86 % of control

Q: What about the T/C (dose: 600.0 mg/kg/injection, schedule: Q04DX003 (ip), vehicle: saline) of the same compound?
A: 95 % of control

Q: `CCCCn1cnc2c(=S)nc(N)[nH]c21` was tested. Which T/C (dose: 12.5 mg/kg/injection, schedule: Q01DX009 (ip), vehicle: saline with Tween-80) did it give?
A: 109 % of control

Q: What about the T/C (dose: 25.0 mg/kg/injection, schedule: Q01DX009 (ip), vehicle: saline with Tween-80) of the same compound?
A: 118 % of control

Q: And the T/C (dose: 33.0 mg/kg/injection, schedule: Q04DX003 (ip), vehicle: saline with Tween-80)?
A: 100 % of control and 118 % of control

Q: What about the T/C (dose: 50.0 mg/kg/injection, schedule: Q01DX009 (ip), vehicle: saline with Tween-80) of the same compound?
A: 118 % of control

Q: And the T/C (dose: 50.0 mg/kg/injection, schedule: Q04DX003 (ip), vehicle: saline with Tween-80)?
A: 108 % of control and 118 % of control

Q: And the T/C (dose: 75.0 mg/kg/injection, schedule: Q04DX003 (ip), vehicle: saline with Tween-80)?
A: 122 % of control

Q: With `COc1cc2c(c(OC)c1OC)-c1cc3c(cc1[C@@H](OC(C)=O)[C@@H]1COC(=O)[C@H]1C2)OCO3` as the compound, how does the T/C (dose: 1.0 mg/kg/injection, schedule: Q01DX009 (ip), vehicle: saline + alcohol) read?
A: 118 % of control

Q: What about the T/C (dose: 1.3 mg/kg/injection, schedule: Q01DX009 (ip), vehicle: saline) of the same compound?
A: 100 % of control

Q: What about the T/C (dose: 1.77 mg/kg/injection, schedule: Q01DX009 (ip), vehicle: saline) of the same compound?
A: 100 % of control

Q: What about the T/C (dose: 2.0 mg/kg/injection, schedule: Q01DX009 (ip), vehicle: saline + alcohol) of the same compound?
A: 118 % of control

Q: What about the T/C (dose: 2.0 mg/kg/injection, schedule: Q01DX009 (ip), vehicle: saline) of the same compound?
A: 100 % of control

Q: And the T/C (dose: 2.66 mg/kg/injection, schedule: Q01DX009 (ip), vehicle: saline)?
A: 90 % of control

Q: And the T/C (dose: 3.0 mg/kg/injection, schedule: Q01DX009 (ip), vehicle: saline)?
A: 104 % of control

Q: What about the T/C (dose: 4.0 mg/kg/injection, schedule: Q01DX009 (ip), vehicle: saline + alcohol) of the same compound?
A: 118 % of control

Q: What about the T/C (dose: 4.0 mg/kg/injection, schedule: Q01DX009 (ip), vehicle: saline) of the same compound?
A: 90 % of control

Q: What about the T/C (dose: 6.0 mg/kg/injection, schedule: Q01DX009 (ip), vehicle: saline) of the same compound?
A: 100 % of control

Q: And the T/C (dose: 6.22 mg/kg/injection, schedule: Q01DX009 (ip), vehicle: saline + alcohol)?
A: 116 % of control

Q: And the T/C (dose: 8.0 mg/kg/injection, schedule: Q01DX009 (ip), vehicle: saline + alcohol)?
A: 113 % of control

Q: What about the T/C (dose: 8.9 mg/kg/injection, schedule: Q01DX009 (ip), vehicle: saline) of the same compound?
A: 104 % of control

Q: What about the T/C (dose: 9.33 mg/kg/injection, schedule: Q01DX009 (ip), vehicle: saline + alcohol) of the same compound?
A: 112 % of control

Q: And the T/C (dose: 12.0 mg/kg/injection, schedule: Q01DX009 (ip), vehicle: saline)?
A: 115 % of control

Q: And the T/C (dose: 13.3 mg/kg/injection, schedule: Q01DX009 (ip), vehicle: saline)?
A: 113 % of control

Q: What about the T/C (dose: 14.0 mg/kg/injection, schedule: Q01DX009 (ip), vehicle: saline + alcohol) of the same compound?
A: 120 % of control

Q: What about the T/C (dose: 18.0 mg/kg/injection, schedule: Q01DX009 (ip), vehicle: saline) of the same compound?
A: 100 % of control

Q: And the T/C (dose: 20.0 mg/kg/injection, schedule: Q01DX009 (ip), vehicle: saline)?
A: 109 % of control

Q: What about the T/C (dose: 21.0 mg/kg/injection, schedule: Q01DX009 (ip), vehicle: saline + alcohol) of the same compound?
A: 91 % of control

Q: With `COC(=O)C1c2cc3c(c(O)c2CCC1(C)O)C(=O)c1c(O)cc2c(c1C3=O)OC1OC2(C)C(O)C(N(C)C)C1O` (stereo unspecified) as the compound, how does the T/C (dose: 11.0 mg/kg/injection, schedule: Q01DX009 (ip), vehicle: saline) read?
A: 113 % of control

Q: What about the T/C [1] of the same compound?
A: 105 % of control

Q: Which T/C (dose: 17.0 mg/kg/injection, schedule: Q01DX010 (ip), vehicle: acetone) does the source give for `CCSc1nc(Cl)cc(Sc2nc(N)nc3nc[nH]c23)n1` here?
A: 113 % of control

Q: What about the T/C (dose: 18.0 mg/kg/injection, schedule: Q01DX009 (ip), vehicle: Klucel (hydroxypropylcellulose) (HPC)) of the same compound?
A: 115 % of control

Q: And the T/C (dose: 26.0 mg/kg/injection, schedule: Q01DX010 (ip), vehicle: acetone)?
A: 168 % of control

Q: And the T/C (dose: 40.0 mg/kg/injection, schedule: Q01DX010 (ip), vehicle: saline)?
A: 150 % of control

Q: What about the T/C (dose: 60.0 mg/kg/injection, schedule: Q01DX010 (ip), vehicle: saline) of the same compound?
A: 165 % of control

Q: What about the T/C (dose: 132.0 mg/kg/injection, schedule: Q01DX010 (ip), vehicle: saline) of the same compound?
A: 110 % of control

Q: What about the T/C (dose: 200.0 mg/kg/injection, schedule: Q01DX009 (ip), vehicle: Klucel (hydroxypropylcellulose) (HPC)) of the same compound?
A: 95 % of control

Q: And the T/C [1]?
A: 90 % of control
